Experimental data reported in patent US20250262172A1 (ANTECIP BIOVENTURES II LLC, priority 2022, published 2025).

Assays:
[1] = powder; cited from earlier work
[2] = Pharmacokinetics in 3 CYP2D6 poor metabolizers given bupropion hydrochloride 105 mg and dextromethorphan hydrobromide 45 mg twice a day (Example 1); settings: 3 poor metabolizers; 105 mg bupropion hydrochloride and 45 mg dextromethorphan hydrobromide twice a day
[3] = Effect of CYP2D6 poor metabolizer status on pharmacokinetics of the 45 mg dextromethorphan hydrobromide / 105 mg bupropion hydrochloride tablet (Example 3, FIG. 1); settings: CYP2D6 poor metabolizers vs extensive or ultra-extensive metabolizers; after 8 days of twice daily dosing of the tablet
[4] = Steady state pharmacokinetic data in 12 poor metabolizers in efficacy clinical trials (Example 2); settings: 105 mg bupropion hydrochloride and 45 mg dextromethorphan hydrobromide twice a day
[5] = CYP2D6 inhibited by quinidine; vs patients who were not CYP2D6 poor metabolizers; cited from earlier work
[6] = Concomitant use of the subject combination with strong CYP2D6 inhibitors; assay type: in vivo, human; settings: subject combination with one or more strong CYP2D6 inhibitors
Text: In some embodiments, the subject composition may be co-administered with one or more strong Inhibitors of CYP2D6. […] It is, thus, recommended to monitor patients for adverse effects or adverse reactions potentially attributable to dextromethorphan, such as somnolence and dizziness.

[7] = Clinical trials of the bupropion and dextromethorphan combination, poor metabolizers vs other patients
[8] = 7 days of twice-daily 30 mg dextromethorphan and 30 mg quinidine; cited from earlier work

Row | Structure (SMILES) | solubility in water [1] | increase in dextromethorphan AUC0-12 compared to extensive metabolizers [2] [fold] | increase in dextromethorphan Cmax compared to extensive metabolizers [2] [fold] | increase in dextromethorphan AUC0-12 (GMR) [3] [fold] | increase in dextromethorphan Cmax (GMR) [3] [fold] | plasma concentrations of dextromethorphan vs exposures for non-poor metabolizer [4] | AUC0-12 of dextromethorphan higher for CYP2D6 poor metabolizers [5] | Cmax of dextromethorphan higher for poor metabolizers [5] | plasma concentrations of dextromethorphan [6] | Cmax and AUC of dextromethorphan in poor metabolizers vs patients who are not poor metabolizers [7] | increase in AUC0-12 of poor metabolizers compared to extensive metabolizers [8] [fold] | increase in Cmax of poor metabolizers compared to extensive metabolizers [8]
1 | CC(NC(C)(C)C)C(=O)c1cccc(Cl)c1.Cl (racemic) [Bupropion hydrochloride, (±)-1-(3-chlorophenyl)-2-[(1,1-dimethylethyl)amino]-1-propanone hydrochloride] | highly soluble |  |  |  |  |  |  |  |  |  |  | 
2 | Br.COc1ccc2c(c1)[C@]13CCCC[C@@H]1[C@H](C2)N(C)CC3 [Dextromethorphan hydrobromide, morphinan, 3-methoxy-17-methyl-, (9α, 13α, 14α), hydrobromide monohydrate] | sparingly soluble |  |  |  |  |  |  |  |  |  |  | 
3 | COc1ccc2c(c1)[C@]13CCCC[C@@H]1[C@H](C2)N(C)CC3 [dextromethorphan] |  | ~3.4 | ~3 | 3.40 | 3.00 | generally higher | about 46% | about 40% | increases | significantly higher | ~1.46 | about 1.43 fold
